What was measured:
[1] = tested on: CD8+ T cells; assay: In vitro immunogenicity: priming of CD8+ T cells with artificial APCs loaded with peptide/MHC and anti-CD28, multimer readout; type: cell-based, human; details: for Wells positive [%]: HLA-A*02 restricted peptides, percentage of positive wells; for donors: HLA-A*02, percentage of positive donors; for wells: HLA-A*02, percentage of positive wells
Excerpt: In order to obtain information regarding the immunogenicity of the TUMAPs of the present invention, the inventors performed investigations using an in vitro T-cell priming assay based on repeated stimulations of CD8+ T cells with artificial antigen presenting cells (aAPCs) loaded with peptide/MHC complexes and anti-CD28 antibody.
In order to perform in vitro stimulations by artificial antigen presenting cells loaded with peptide-MHC complex (pMHC) and anti-CD28 antibody, the inventors first isolated CD8+ T cells from fresh HLA-A*02 leukapheresis products via positive selection using CD8 microbeads (Miltenyi Biotec, Bergisch-Gladbach, Germany) of healthy donors obtained from the University clinics Mannheim, Germany, after informed consent.
PBMCs and isolated CD8+ lymphocytes were incubated in T-cell medium (TCM) until use consisting of RPMI-Glutamax (Invitrogen, Karlsruhe, Germany) supplemented with 10% heat inactivated human AB serum (PAN-Biotech, Aidenbach, Germany), 100 U/ml Penicillin/100 μg/ml Streptomycin (Cambrex, Cologne, Germany), 1 mM sodium pyruvate (CC Pro, Oberdorla, Germany), 20 μg/ml Gentamycin (Cambrex). 2.5 ng/ml IL-7 (PromoCell, Heidelberg, Germany) and 10 U/ml IL-2 (Novartis Pharma, Nürnberg, Germany) were also added to the TCM at this step.
Generation of pMHC/anti-CD28 coated beads, T-cell stimulations and readout was performed in a highly defined in vitro system using four different pMHC molecules per stimulation condition and 8 different pMHC molecules per readout condition.
The purified co-stimulatory mouse IgG2a anti human CD28 Ab 9.3 (Jung et al., 1987) was chemically biotinylated using Sulfo-N-hydroxysuccinimidobiotin as recommended by the manufacturer (Perbio, Bonn, Germany). Beads used were 5.6 μm diameter streptavidin coated polystyrene particles (Bangs Laboratories, Illinois, USA).
pMHC used for positive and negative control stimulations were A*0201/MLA-001 (peptide […] (SEQ ID NO. 664) from modified Melan-A/MART-1) and A*0201/DDX5-001 ([…] from DDX5, SEQ ID NO. 665), respectively.
800.000 beads/200 μl were coated in 96-well plates in the presence of 4×12.5 ng different biotin-pMHC, washed and 600 ng biotin anti-CD28 were added subsequently in a volume of 200 μl. Stimulations were initiated in 96-well plates by co-incubating […] CD8+ T cells with 2×10^5 washed coated beads in 200 μl TCM supplemented with 5 ng/ml IL-12 (PromoCell) for 3 days at 37° C. Half of the medium was then exchanged by fresh TCM supplemented with 80 U/ml IL-2 and incubating was continued for 4 days at 37° C. This stimulation cycle was performed for a total of three times. For the pMHC multimer readout using 8 different pMHC molecules per condition, a two-dimensional combinatorial coding approach was used as previously described (Andersen et al., 2012) with minor modifications encompassing coupling to 5 different fluorochromes. Finally, multimeric analyses were performed by staining the cells with Live/dead near IR dye (Invitrogen, Karlsruhe, Germany), CD8-FITC antibody clone SK1 (BD, Heidelberg, Germany) and fluorescent pMHC multimers. For analysis, a BD LSRII SORP cytometer equipped with appropriate lasers and filters was used. Peptide specific cells were calculated as percentage of total CD8+ cells. Evaluation of multimeric analysis was done using the FlowJo software (Tree Star, Oregon, USA). In vitro priming of specific multimer+ CD8+ lymphocytes was detected by comparing to negative control stimulations.

[2] = biological target: HLA-A*02:01 (Homo sapiens, UniProt P04439, D140Y/D185E/D98H/E176V/E277Q/G131W/G231S/I119V/I121R/I166T/I218V/L300P/L318F/N151K/N90K/P208A/P217A/Q86G/Q94H/R138H/R169H/T345S); assay: MHC binding assay (UV-ligand exchange, β2m ELISA, peptide exchange yield); details: MHC class I binding score; binding to HLA-A*02:01 ranged by peptide exchange yield (UV-ligand exchange, β2m ELISA)
In short: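 Binding is expressed as peptide exchange yield: stabilized MHC complexes were quantified by β2m ELISA, with a 450 nm TMB read-out on streptavidin-coated plates. Complexes came from UV-ligand exchange, where UV irradiation cleaves a photolabile peptide so the candidate peptide can load.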

Peptide exchange [2]	Substance	Wells positive [%] [1]	donors [1]	wells [1]
“++” (≧20% = ++)	603 (FLIEPEHVNTV; listed as Homo sapiens) [compound 603]	“+” (<20% = +)	–	–
“+++” (≧50 = +++)	489 (KMWEELPEVV; listed as Homo sapiens) [compound 489]	“+” (<20% = +)	–	–
“+++” (≧50 = +++)	384 (ILFANPNIFV; listed as Homo sapiens) [compound 384]	“+” (<20% = +)	–	–
“++++” (≧75% = ++++)	460 (AMLEKNYKL; listed as Homo sapiens) [compound 460]	“+” (<20% = +)	–	–
“+++” (≧50 = +++)	446 (QLIPALAKV; listed as Homo sapiens) [compound 446]	“++” (20%-49% = ++)	–	–
“++” (≧20% = ++)	141 (YLDFSNNRL; listed as Homo sapiens) [compound 141]	“+” (<20% = +)	–	–
“+++” (≧50 = +++)	152 (ILFEDIFDV; listed as Homo sapiens) [compound 152]	“++” (20%-49% = ++)	–	–
“++” (≧20% = ++)	242 (AIAYILQGV; listed as Homo sapiens) [compound 242]	“+++” (50%-69% = +++)	–	–
“+++” (≧50 = +++)	247 (VLLPNDLLEKV; listed as Homo sapiens) [compound 247]	“+” (<20% = +)	–	–
“+++” (≧50 = +++)	199 (ALQDVPLSSV; listed as Homo sapiens) [compound 199]	“+” (<20% = +)	–	–
“+++” (≧50 = +++)	198 (KTINKVPTV; listed as Homo sapiens) [compound 198]	“++” (20%-49% = ++)	–	–
“++” (≧20% = ++)	319 (SLEPQIQPV; listed as Homo sapiens) [compound 319]	“+” (<20% = +)	–	–
“+++” (≧50 = +++)	463 (SLVESHLSDQLTL; listed as Homo sapiens) [compound 463]	“++” (20%-49% = ++)	–	–
“++” (≧20% = ++)	499 (KIFDIDEAEEGV; listed as Homo sapiens) [compound 499]	“+” (<20% = +)	–	–
“++” (≧20% = ++)	191 (LLQEGQALEYV; listed as Homo sapiens) [compound 191]	“+++” (50%-69% = +++)	–	–
“+++” (≧50 = +++)	283 (ALYIGDGYVIHLA; listed as Homo sapiens) [compound 283]	–	+++ (50%-69 = +++)	+ (<20% = +)
“++” (≧20% = ++)	511 (FLDPYCSASV; listed as Homo sapiens) [compound 511]	“+” (<20% = +)	–	–
“+++” (≧50 = +++)	215 (QLINHLHAV; listed as Homo sapiens) [compound 215]	“++” (20%-49% = ++)	–	–
“++++” (≧75% = ++++)	143 (LLLDITPEI; listed as Homo sapiens) [compound 143]	“+” (<20% = +)	–	–
“++++” (≧75% = ++++)	395 (ALALGGIAVV; listed as Homo sapiens) [compound 395]	“+++” (50%-69% = +++)	–	–

Further lines, the substance ahead of its results:

Substance	Peptide exchange [2]	Wells positive [%] [1]	donors [1]	wells [1]
79 (SLFIGEKAVLL; listed as Homo sapiens) [compound 79]	“+++” (≧50 = +++)	“+” (<20% = +)	–	–
11 (KIFEMLEGV; listed as Homo sapiens) [compound 11]	“+++” (≧50 = +++)	“+” (<20% = +)	–	–
36 (YVLEDLEVTV; listed as Homo sapiens) [compound 36]	“++” (≧20% = ++)	“+” (<20% = +)	–	–
60 (SLTIDGIYYV; listed as Homo sapiens) [compound 60]	“++++” (≧75% = ++++)	“++++” (> = 70% = ++++)	–	–
3 (SLASKLTTL; listed as Homo sapiens) [compound 3]	“++++” (≧75% = ++++)	“+” (<20% = +)	–	–
49 (YLPAVFEEV; listed as Homo sapiens) [compound 49]	“+++” (≧50 = +++)	“++” (20%-49% = ++)	–	–
659 (ILFPDIIARA; listed as Homo sapiens) [compound 659]	–	–	+++ (50%-69 = +++)	+ (<20% = +)
8 (FTLGNVVGMYL; listed as Homo sapiens) [compound 8]	“++++” (≧75% = ++++)	“+” (<20% = +)	–	–
113 (GLLPTPLFGV; listed as Homo sapiens) [compound 113]	“+++” (≧50 = +++)	“+” (<20% = +)	–	–
2 (SLLEADPFL; listed as Homo sapiens) [compound 2]	“+++” (≧50 = +++)	“+” (<20% = +)	–	–
652 (TLWYRAPEV; listed as Homo sapiens) [compound 652]	–	–	++++ (> = 70% = ++++)	+++ (50%-69 = +++)
7 (SLVGLLLYL; listed as Homo sapiens) [compound 7]	“++++” (≧75% = ++++)	“++” (20%-49% = ++)	–	–
48 (ALAELYEDEV; listed as Homo sapiens) [compound 48]	“+++” (≧50 = +++)	“+” (<20% = +)	–	–
40 (TLLVKVFSV; listed as Homo sapiens) [compound 40]	“+++” (≧50 = +++)	“++” (20%-49% = ++)	–	–
663 (KIQEMQHFL; listed as Homo sapiens) [compound 663]	–	–	+++ (50%-69 = +++)	+ (<20% = +)
61 (FLQGYQLHL; listed as Homo sapiens) [compound 61]	“++++” (≧75% = ++++)	“++” (20%-49% = ++)	–	–
108 (ALFPGVALLLA; listed as Homo sapiens) [compound 108]	“++++” (≧75% = ++++)	“++” (20%-49% = ++)	–	–
648 (LLWGNAIFL; listed as Homo sapiens) [compound 648]	–	–	+++ (50%-69 = +++)	++ (20%-49% = ++)
56 (KLYEGIPVLL; listed as Homo sapiens) [compound 56]	“++++” (≧75% = ++++)	“+” (<20% = +)	–	–
5 (HLTEVYPEL; listed as Homo sapiens) [compound 5]	“+++” (≧50 = +++)	“+++” (50%-69% = +++)	–	–
118 (KLIDNNINV; listed as Homo sapiens) [compound 118]	“+++” (≧50 = +++)	“+” (<20% = +)	–	–
662 (KIQEILTQV; listed as Homo sapiens) [compound 662]	–	–	+++ (50%-69 = +++)	+ (<20% = +)
19 (FMVDNEAIYDI; listed as Homo sapiens) [compound 19]	“++++” (≧75% = ++++)	“++” (20%-49% = ++)	–	–
